Measurements: patent US9737498B2, “Method for treating an inflammation or lesion caused by a virus” (priority 2001, dated 2017)
Read-outs that look alike come from different tables or passages of the source.

What was measured:
[1] = test system: Herpes simplex virus 1 (HSV-1); test: Growth inhibition of HSV-1 in vitro (Vero cells, cytopathic effect / plaques); type: cell-based; settings: for Virus growth (HSV-1): pH 3.5 (HCl); for Upper pH limit at which HSV-1 is inactivated by the alcohol: alcohol 0.2% by volume, pH adjusted with HCl, tested pH 4.0 to 6.8 at increments of 0.2, incubated with the virus for 2 minutes
rhinoviruses = settings: foams; cited from earlier work
[2] = test system: naked viruses (e.g., poliovirus type 1); settings: alcohol alone; cited from earlier work
[3] = test system: VSV (a lipid-coated virus); settings: cited from earlier work
[4] = test system: "enveloped" viruses (herpesvirus, orthomyxovirus and rhabdovirus (Rabies virus)); settings: room temperature, aqueous solutions of pure acids; cited from earlier work

Molecule: CCO [ethanol]
- Virus growth (HSV-1) ([1]; 1.0% ethanol, 5 minute exposure, diluted 1/16 with Eagles medium): +
- Virus growth (HSV-1) ([1]; 1.0% ethanol, 5 minute exposure, diluted 1/64 with Eagles medium): +
- Virus growth (HSV-1) ([1]; 1.0% ethanol, 5 minute exposure, diluted ¼ with Eagles medium): +
- Virus growth (HSV-1) ([1]; 1.0% ethanol, 5 minute exposure, undiluted): +
- Virus growth (HSV-1) ([1]; 1.0% ethanol, 10 minute exposure, diluted 1/16 with Eagles medium): +
- Virus growth (HSV-1) ([1]; 1.0% ethanol, 10 minute exposure, diluted 1/64 with Eagles medium): +
- Virus growth (HSV-1) ([1]; 1.0% ethanol, 10 minute exposure, diluted ¼ with Eagles medium): +
- Virus growth (HSV-1) ([1]; 1.0% ethanol, 10 minute exposure, undiluted): −
- Inhibition of growth of the virus (HSV-1) ([1]; 2.5% ethanol solution diluted by ¼, pH 3.5, exposure time 10 minutes): effectively inhibited growth of the virus
- Virus growth (HSV-1) ([1]; 2.5% ethanol, 5 minute exposure, diluted 1/16 with Eagles medium): +
- Virus growth (HSV-1) ([1]; 2.5% ethanol, 5 minute exposure, diluted 1/64 with Eagles medium): +
- Virus growth (HSV-1) ([1]; 2.5% ethanol, 5 minute exposure, diluted ¼ with Eagles medium): +
- Virus growth (HSV-1) ([1]; 2.5% ethanol, 5 minute exposure, undiluted): +
- Virus growth (HSV-1) ([1]; 2.5% ethanol, 10 minute exposure, diluted 1/16 with Eagles medium): +
- Virus growth (HSV-1) ([1]; 2.5% ethanol, 10 minute exposure, diluted 1/64 with Eagles medium): +
- Virus growth (HSV-1) ([1]; 2.5% ethanol, 10 minute exposure, diluted ¼ with Eagles medium): −
- Virus growth (HSV-1) ([1]; 2.5% ethanol, 10 minute exposure, undiluted): −
- Virus growth (HSV-1) ([1]; 5.0% ethanol, 5 minute exposure, diluted 1/16 with Eagles medium): +
- Virus growth (HSV-1) ([1]; 5.0% ethanol, 5 minute exposure, diluted 1/64 with Eagles medium): +
- Virus growth (HSV-1) ([1]; 5.0% ethanol, 5 minute exposure, diluted ¼ with Eagles medium): +
- Virus growth (HSV-1) ([1]; 5.0% ethanol, 5 minute exposure, undiluted): +
- Virus growth (HSV-1) ([1]; 5.0% ethanol, 10 minute exposure, diluted 1/16 with Eagles medium): +
- Virus growth (HSV-1) ([1]; 5.0% ethanol, 10 minute exposure, diluted 1/64 with Eagles medium): +
- Virus growth (HSV-1) ([1]; 5.0% ethanol, 10 minute exposure, diluted ¼ with Eagles medium): −
- Virus growth (HSV-1) ([1]; 5.0% ethanol, 10 minute exposure, undiluted): −
- Virus growth (HSV-1) ([1]; 10% ethanol, 5 minute exposure, diluted 1/16 with Eagles medium): +
- Virus growth (HSV-1) ([1]; 10% ethanol, 5 minute exposure, diluted 1/64 with Eagles medium): +
- Virus growth (HSV-1) ([1]; 10% ethanol, 5 minute exposure, diluted ¼ with Eagles medium): +
- Virus growth (HSV-1) ([1]; 10% ethanol, 5 minute exposure, undiluted): +
- Virus growth (HSV-1) ([1]; 10% ethanol, 10 minute exposure, diluted 1/16 with Eagles medium): +
- Virus growth (HSV-1) ([1]; 10% ethanol, 10 minute exposure, diluted 1/64 with Eagles medium): +
- Virus growth (HSV-1) ([1]; 10% ethanol, 10 minute exposure, diluted ¼ with Eagles medium): −
- Virus growth (HSV-1) ([1]; 10% ethanol, 10 minute exposure, undiluted): −
- Inhibition of the virus (HSV-1) ([1]; 12.5% ethanol solution, pH 3.5, exposure time of five minutes): inhibited the virus
- Virus growth (HSV-1) ([1]; 12.5% ethanol, 5 minute exposure, diluted 1/16 with Eagles medium): +
- Virus growth (HSV-1) ([1]; 12.5% ethanol, 5 minute exposure, diluted 1/64 with Eagles medium): +
- Virus growth (HSV-1) ([1]; 12.5% ethanol, 5 minute exposure, diluted ¼ with Eagles medium): −
- Virus growth (HSV-1) ([1]; 12.5% ethanol, 5 minute exposure, undiluted): −
- Virus growth (HSV-1) ([1]; 12.5% ethanol, 10 minute exposure, diluted 1/16 with Eagles medium): −
- Virus growth (HSV-1) ([1]; 12.5% ethanol, 10 minute exposure, diluted 1/64 with Eagles medium): +
- Virus growth (HSV-1) ([1]; 12.5% ethanol, 10 minute exposure, diluted ¼ with Eagles medium): −
- Virus growth (HSV-1) ([1]; 12.5% ethanol, 10 minute exposure, undiluted): −
- Upper pH limit at which HSV-1 is inactivated by the alcohol [1]: 4.4
- Effectiveness in killing rhinoviruses (rhinoviruses): not effective
- Activity against naked viruses [2]: did not exhibit sufficient activities
- Virucidal activity against VSV ([3]; pH of about 4 to 5 at 4° C., aqueous solution of biologically active protein): fairly inactive

Molecule: O=C(O)CO [glycolic acid]
- Virus growth at sample dilution (HSV-1) ([1]; aqueous acid solution pH 3.8, exposure of 4 minutes, dilution 1/16): −
- Virus growth at sample dilution (HSV-1) ([1]; aqueous acid solution pH 3.8, exposure of 4 minutes, dilution 1/64): −
- Virus growth at sample dilution (HSV-1) ([1]; aqueous acid solution pH 3.8, exposure of 4 minutes, dilution ¼): −
- Virus growth at sample dilution (HSV-1) ([1]; aqueous acid solution pH 3.8, exposure of 4 minutes, undiluted): −
- Virus growth at sample dilution (HSV-1) ([1]; aqueous acid solution pH 4.0, exposure of 4 minutes, dilution 1/16): +
- Virus growth at sample dilution (HSV-1) ([1]; aqueous acid solution pH 4.0, exposure of 4 minutes, dilution 1/64): +
- Virus growth at sample dilution (HSV-1) ([1]; aqueous acid solution pH 4.0, exposure of 4 minutes, dilution ¼): +
- Virus growth at sample dilution (HSV-1) ([1]; aqueous acid solution pH 4.0, exposure of 4 minutes, undiluted): +
- Virus growth at sample dilution (HSV-1) ([1]; aqueous acid solution pH 4.2, exposure of 4 minutes, dilution 1/16): +
- Virus growth at sample dilution (HSV-1) ([1]; aqueous acid solution pH 4.2, exposure of 4 minutes, dilution 1/64): +
- Virus growth at sample dilution (HSV-1) ([1]; aqueous acid solution pH 4.2, exposure of 4 minutes, dilution ¼): +
- Virus growth at sample dilution (HSV-1) ([1]; aqueous acid solution pH 4.2, exposure of 4 minutes, undiluted): −
- Virus growth at sample dilution (HSV-1) ([1]; aqueous acid solution pH 6.0, exposure of 4 minutes, dilution 1/16): +
- Virus growth at sample dilution (HSV-1) ([1]; aqueous acid solution pH 6.0, exposure of 4 minutes, dilution 1/64): +
- Virus growth at sample dilution (HSV-1) ([1]; aqueous acid solution pH 6.0, exposure of 4 minutes, dilution ¼): +
- Virus growth at sample dilution (HSV-1) ([1]; aqueous acid solution pH 6.0, exposure of 4 minutes, undiluted): +

Molecule: O=C(O)CCC(=O)O [succinic acid]
- Effectiveness in vitro against enveloped viruses [4]: effective

Molecule: CO [methanol]
- Upper pH limit at which HSV-1 is inactivated by the alcohol [1]: 4.6

Molecule: O=C(O)CC(O)(CC(=O)O)C(=O)O [citric acid]
- Effectiveness in vitro against enveloped viruses [4]: effective

Molecule: O=C(O)CC(O)C(=O)O (stereo not drawn) [malic acid]
- Effectiveness in vitro against enveloped viruses [4]: effective

Molecule: CCC(O)CO (stereo not drawn) [1,2-butanediol]
- Upper pH limit at which HSV-1 is inactivated by the alcohol [1]: 4.2

Molecule: CC(=O)C(=O)O [pyruvic acid]
- Effectiveness in vitro against enveloped viruses [4]: effective

Molecule: CCCO [propanol, reference compound]
- Activity against naked viruses [2]: did not exhibit sufficient activities

Molecule: butanol [reference compound]
- Virucidal activity against VSV [3]: fairly inactive

Molecule: CCCCO [n-butanol]
- Upper pH limit at which HSV-1 is inactivated by the alcohol [1]: 4.6

Molecule: CC(O)C(C)O (stereo not drawn) [2,3-butanediol]
- Upper pH limit at which HSV-1 is inactivated by the alcohol [1]: 4.6
